# Experimental data from publication PMC7265341, “Quantifying CDK inhibitor selectivity in live cells” (Nature Communications, 2020).
# Like-named read-outs stand apart in the source and are kept apart here.
# How the values were obtained:
# [1] = target: CDK6/Cyclin D1 (Homo sapiens, UniProt Q00534); experiment: NanoBRET live-cell target engagement, NanoLuc-CDK6/Cyclin D1 in HEK-293; format: binding; details: CDK6/D1; for IC50: read-out: IC50
# [2] = target: CDK11B/Cyclin L2 (Homo sapiens, UniProt P21127); experiment: NanoBRET live-cell target engagement, CDK11B-NanoLuc/Cyclin L2 in HEK-293; format: binding; details: CDK11b/L2; for IC50: read-out: IC50
# Chain of CDK11B/Cyclin L2 (P21127 1-782 isoform P21127-2): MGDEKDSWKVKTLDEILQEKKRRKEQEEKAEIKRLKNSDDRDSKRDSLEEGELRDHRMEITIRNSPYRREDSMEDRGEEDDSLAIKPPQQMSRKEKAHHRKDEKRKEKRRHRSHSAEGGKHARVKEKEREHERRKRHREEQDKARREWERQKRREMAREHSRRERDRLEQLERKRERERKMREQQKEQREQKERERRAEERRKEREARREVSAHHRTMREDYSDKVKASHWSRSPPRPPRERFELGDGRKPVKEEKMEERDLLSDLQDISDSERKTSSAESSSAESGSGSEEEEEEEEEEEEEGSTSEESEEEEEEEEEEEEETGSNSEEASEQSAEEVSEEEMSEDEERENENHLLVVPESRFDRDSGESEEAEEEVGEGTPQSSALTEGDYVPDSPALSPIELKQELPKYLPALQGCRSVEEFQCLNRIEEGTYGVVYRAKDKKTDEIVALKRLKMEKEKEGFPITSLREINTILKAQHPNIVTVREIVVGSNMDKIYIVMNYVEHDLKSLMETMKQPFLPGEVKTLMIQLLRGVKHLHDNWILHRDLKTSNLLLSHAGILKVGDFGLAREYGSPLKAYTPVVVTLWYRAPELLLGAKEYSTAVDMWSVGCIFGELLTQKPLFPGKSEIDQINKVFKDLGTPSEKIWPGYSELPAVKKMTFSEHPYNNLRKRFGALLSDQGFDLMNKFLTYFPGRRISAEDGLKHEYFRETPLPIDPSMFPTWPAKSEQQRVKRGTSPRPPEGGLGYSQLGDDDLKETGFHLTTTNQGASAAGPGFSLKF
# [3] = target: CDK1/Cyclin E1 (Homo sapiens, UniProt P06493); experiment: NanoBRET live-cell target engagement, CDK1-NanoLuc/Cyclin E1 in HEK-293; format: binding
# Chain of CDK1/Cyclin E1 (P06493 whole entry): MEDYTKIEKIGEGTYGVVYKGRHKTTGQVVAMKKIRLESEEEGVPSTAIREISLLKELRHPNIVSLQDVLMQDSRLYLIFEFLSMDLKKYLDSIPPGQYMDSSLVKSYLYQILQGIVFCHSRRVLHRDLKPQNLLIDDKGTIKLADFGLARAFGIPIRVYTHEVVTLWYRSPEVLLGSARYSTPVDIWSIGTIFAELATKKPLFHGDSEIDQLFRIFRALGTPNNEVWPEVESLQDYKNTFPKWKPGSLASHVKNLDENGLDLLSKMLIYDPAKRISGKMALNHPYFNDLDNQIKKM
# Chain of CDK1/Cyclin E1 (P24864 whole entry partner): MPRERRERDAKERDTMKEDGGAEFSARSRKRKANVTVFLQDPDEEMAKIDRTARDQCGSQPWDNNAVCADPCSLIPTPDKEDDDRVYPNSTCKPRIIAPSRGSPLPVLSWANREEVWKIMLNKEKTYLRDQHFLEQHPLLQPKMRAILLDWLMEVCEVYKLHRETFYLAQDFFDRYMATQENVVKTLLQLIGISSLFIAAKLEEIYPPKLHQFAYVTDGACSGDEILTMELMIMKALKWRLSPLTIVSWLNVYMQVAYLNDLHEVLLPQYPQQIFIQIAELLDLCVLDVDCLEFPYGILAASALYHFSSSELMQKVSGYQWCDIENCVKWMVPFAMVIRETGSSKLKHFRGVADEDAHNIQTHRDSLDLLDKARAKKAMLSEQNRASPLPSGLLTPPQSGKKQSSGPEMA
# [4] = target: CDK19/Cyclin C (Homo sapiens, UniProt Q9BWU1); experiment: NanoBRET live-cell target engagement, NanoLuc-CDK19/Cyclin C in HEK-293; details: CDK19/C
# Chain of CDK19/Cyclin C (Q9BWU1 whole entry): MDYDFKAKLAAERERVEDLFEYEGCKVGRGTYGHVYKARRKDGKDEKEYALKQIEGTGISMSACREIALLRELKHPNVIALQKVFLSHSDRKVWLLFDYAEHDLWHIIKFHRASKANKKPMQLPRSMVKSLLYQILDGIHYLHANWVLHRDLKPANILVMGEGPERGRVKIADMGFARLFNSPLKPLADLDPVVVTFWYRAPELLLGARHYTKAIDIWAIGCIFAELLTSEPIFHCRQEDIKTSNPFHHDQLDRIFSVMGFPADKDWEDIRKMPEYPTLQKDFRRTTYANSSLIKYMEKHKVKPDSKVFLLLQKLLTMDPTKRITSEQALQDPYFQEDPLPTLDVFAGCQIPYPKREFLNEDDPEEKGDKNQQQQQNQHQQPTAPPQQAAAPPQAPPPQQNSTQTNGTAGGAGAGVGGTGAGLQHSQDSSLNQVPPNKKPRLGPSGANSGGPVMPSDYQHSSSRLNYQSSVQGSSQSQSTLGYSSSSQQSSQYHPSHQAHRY
# Chain of CDK19/Cyclin C (P24863 whole entry partner): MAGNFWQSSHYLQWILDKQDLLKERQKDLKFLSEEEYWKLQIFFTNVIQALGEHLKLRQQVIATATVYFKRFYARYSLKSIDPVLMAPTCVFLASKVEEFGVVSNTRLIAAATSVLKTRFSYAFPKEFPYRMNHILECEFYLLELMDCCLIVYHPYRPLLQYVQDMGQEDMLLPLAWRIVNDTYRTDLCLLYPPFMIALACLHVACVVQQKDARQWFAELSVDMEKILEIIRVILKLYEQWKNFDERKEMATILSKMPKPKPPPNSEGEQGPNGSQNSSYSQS
# [5] = target: CDK17/Cyclin Y (Homo sapiens, UniProt Q00537); experiment: NanoBRET live-cell target engagement, CDK17-NanoLuc/Cyclin Y in HEK-293; format: binding; details: CDK17/Y; for IC50: read-out: IC50
# Chain of CDK17/Cyclin Y (Q00537 whole entry): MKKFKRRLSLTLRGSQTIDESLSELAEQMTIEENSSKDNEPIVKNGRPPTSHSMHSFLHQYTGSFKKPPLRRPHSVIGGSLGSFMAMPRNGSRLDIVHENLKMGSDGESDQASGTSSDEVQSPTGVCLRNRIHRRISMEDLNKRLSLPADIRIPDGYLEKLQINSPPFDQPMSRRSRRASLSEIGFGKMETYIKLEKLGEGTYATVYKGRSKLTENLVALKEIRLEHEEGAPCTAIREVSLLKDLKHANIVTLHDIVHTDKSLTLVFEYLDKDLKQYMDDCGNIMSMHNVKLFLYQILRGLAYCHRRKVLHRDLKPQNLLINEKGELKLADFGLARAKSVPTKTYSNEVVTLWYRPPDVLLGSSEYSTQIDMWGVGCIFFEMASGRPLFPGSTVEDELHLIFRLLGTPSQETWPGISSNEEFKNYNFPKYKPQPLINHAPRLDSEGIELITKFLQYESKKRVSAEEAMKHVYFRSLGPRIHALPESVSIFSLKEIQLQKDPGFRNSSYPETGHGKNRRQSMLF
# Chain of CDK17/Cyclin Y (Q8ND76 whole entry partner): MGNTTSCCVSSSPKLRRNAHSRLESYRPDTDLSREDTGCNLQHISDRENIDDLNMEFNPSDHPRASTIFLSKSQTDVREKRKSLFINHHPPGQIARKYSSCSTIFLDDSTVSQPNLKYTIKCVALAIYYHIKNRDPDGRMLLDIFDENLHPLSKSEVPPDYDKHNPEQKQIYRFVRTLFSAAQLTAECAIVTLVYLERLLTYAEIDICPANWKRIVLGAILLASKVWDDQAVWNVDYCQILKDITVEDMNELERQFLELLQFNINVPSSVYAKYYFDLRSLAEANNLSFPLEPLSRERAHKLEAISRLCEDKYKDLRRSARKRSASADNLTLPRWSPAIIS
# [6] = target: CDK15/Cyclin Y (Homo sapiens, UniProt Q96Q40); experiment: NanoBRET live-cell target engagement, NanoLuc-CDK15/Cyclin Y in HEK-293; format: binding
# Chain of CDK15/Cyclin Y (Q96Q40 whole entry): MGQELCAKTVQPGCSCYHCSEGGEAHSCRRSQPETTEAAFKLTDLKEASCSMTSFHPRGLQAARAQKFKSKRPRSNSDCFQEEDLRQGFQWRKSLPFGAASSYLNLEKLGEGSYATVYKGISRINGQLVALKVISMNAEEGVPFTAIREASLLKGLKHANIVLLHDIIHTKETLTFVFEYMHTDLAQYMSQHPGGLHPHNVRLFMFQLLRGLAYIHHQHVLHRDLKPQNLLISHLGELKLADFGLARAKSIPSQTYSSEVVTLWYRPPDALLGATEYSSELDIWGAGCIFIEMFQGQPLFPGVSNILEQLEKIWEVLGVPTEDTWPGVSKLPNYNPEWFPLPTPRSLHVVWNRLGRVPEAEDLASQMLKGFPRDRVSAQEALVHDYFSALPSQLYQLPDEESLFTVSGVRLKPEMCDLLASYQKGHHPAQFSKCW
# Chain of CDK15/Cyclin Y (Q8ND76 whole entry partner): as the sequence (Q8ND76 whole entry partner) above
# [7] = target: T1, CDK11A/Cyclin L2 (Homo sapiens, UniProt Q9UQ88); experiment: NanoBRET live-cell target engagement, CDK11A-NanoLuc/Cyclin L2 in HEK-293; format: binding; details: CDK11a/L2
# T1 sequence (Q9UQ88 1-783): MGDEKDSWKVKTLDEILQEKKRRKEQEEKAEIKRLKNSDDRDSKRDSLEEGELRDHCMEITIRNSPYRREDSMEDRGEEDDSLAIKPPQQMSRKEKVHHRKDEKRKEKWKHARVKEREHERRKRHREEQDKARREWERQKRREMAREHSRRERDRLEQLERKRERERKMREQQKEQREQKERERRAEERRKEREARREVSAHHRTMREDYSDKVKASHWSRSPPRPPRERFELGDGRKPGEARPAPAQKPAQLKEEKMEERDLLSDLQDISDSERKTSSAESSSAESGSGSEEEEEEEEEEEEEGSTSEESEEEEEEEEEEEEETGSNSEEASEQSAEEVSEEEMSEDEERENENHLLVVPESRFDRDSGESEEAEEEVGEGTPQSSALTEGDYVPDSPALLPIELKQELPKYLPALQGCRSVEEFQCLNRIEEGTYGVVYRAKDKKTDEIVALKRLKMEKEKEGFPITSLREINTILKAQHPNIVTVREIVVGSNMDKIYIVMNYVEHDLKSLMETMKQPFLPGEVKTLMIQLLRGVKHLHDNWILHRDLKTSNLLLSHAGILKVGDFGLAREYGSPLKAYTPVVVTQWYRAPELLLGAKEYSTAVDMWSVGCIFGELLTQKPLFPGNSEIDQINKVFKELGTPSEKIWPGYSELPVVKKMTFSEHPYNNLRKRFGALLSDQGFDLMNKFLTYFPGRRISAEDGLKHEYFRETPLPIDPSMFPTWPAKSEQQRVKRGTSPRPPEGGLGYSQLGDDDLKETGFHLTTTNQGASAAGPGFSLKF
# [8] = target: CDK10/Cyclin L2 (Homo sapiens, UniProt Q15131); experiment: NanoBRET live-cell target engagement, CDK10-NanoLuc/Cyclin L2 in HEK-293; details: CDK10/L2
# Chain of CDK10/Cyclin L2 (Q15131 whole entry): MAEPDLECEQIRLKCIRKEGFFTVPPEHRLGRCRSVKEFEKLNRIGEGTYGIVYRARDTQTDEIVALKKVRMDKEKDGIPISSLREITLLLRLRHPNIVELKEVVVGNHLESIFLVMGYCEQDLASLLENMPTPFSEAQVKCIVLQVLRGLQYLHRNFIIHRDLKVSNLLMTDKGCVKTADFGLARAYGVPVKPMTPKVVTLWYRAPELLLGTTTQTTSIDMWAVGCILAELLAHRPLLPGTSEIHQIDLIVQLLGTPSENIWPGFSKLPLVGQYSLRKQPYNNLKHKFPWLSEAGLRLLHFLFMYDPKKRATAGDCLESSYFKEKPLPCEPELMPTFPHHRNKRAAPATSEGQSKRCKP
# [9] = target: CDK18/Cyclin Y (Homo sapiens, UniProt Q07002); experiment: NanoBRET live-cell target engagement, CDK18-NanoLuc/Cyclin Y in HEK-293; format: binding; details: CDK18/Y
# Chain of CDK18/Cyclin Y (Q07002 whole entry): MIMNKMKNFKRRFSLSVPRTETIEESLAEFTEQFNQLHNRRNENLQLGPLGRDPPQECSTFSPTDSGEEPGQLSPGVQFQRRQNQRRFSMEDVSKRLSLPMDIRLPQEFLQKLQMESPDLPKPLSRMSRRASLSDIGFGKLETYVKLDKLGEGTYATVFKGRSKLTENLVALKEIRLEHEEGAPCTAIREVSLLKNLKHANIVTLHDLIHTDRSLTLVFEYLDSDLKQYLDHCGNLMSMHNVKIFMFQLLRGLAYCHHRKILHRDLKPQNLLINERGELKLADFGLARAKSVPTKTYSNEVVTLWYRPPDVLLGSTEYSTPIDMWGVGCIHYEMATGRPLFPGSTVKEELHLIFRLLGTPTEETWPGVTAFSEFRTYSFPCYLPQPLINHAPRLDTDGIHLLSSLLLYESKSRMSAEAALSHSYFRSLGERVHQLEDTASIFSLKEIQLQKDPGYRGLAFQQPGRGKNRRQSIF
# Chain of CDK18/Cyclin Y (Q8ND76 whole entry partner): as the sequence (Q8ND76 whole entry partner) above
smiles,measurement,setting,value
CC(C)c1cnn2c(NCc3ccccc3-n3cccn3)nc(OC3CCCNC3)nc12 (stereo not shown) [LDC4297],Inhibition at 10µM (%),[1]; average,27.5%
same,IC50,[1]; average (± SEM where n=3),110 ± 80 nM
same,Inhibition at 10µM (%),[1]; experiment 1,31.4%
same,IC50,[1]; experiment 1,9 nM
same,Inhibition at 10µM (%),[1]; experiment 2,23.6%
same,IC50,[1]; experiment 2,270 nM
same,IC50,[1]; experiment 3,50 nM
same,Inhibition at 10µM (%),[2]; average,53.6%
same,IC50,[2]; average (± SEM where n=3),760 ± 60 nM
same,Inhibition at 10µM (%),[2]; experiment 1,54.6%
same,IC50,[2]; experiment 1,876 nM
same,Inhibition at 10µM (%),[2]; experiment 2,52.6%
same,IC50,[2]; experiment 2,685 nM
same,IC50,[2]; experiment 3,732 nM
same,Inhibition at 10µM (%),"[3]; CDK1/E1, average",72.7%
same,IC50,"[3]; CDK1/E1, average (± SEM where n=3), read-out: IC50",70 ± 20 nM
same,Inhibition at 10µM (%),"[3]; CDK1/E1, experiment 1",70.9%
same,IC50,"[3]; CDK1/E1, experiment 1, read-out: IC50",70 nM
same,Inhibition at 10µM (%),"[3]; CDK1/E1, experiment 2",74.5%
same,IC50,"[3]; CDK1/E1, experiment 2, read-out: IC50",110 nM
same,IC50,"[3]; CDK1/E1, experiment 3, read-out: IC50",43 nM
same,IC50,"[3]; live HEK-293, 2 h, mean ± S.E.M. (n=3) or mean (n=2), read-out: IC50 for CDK/cyclin complexes, CDK1/E1",70 ± 20 nM
same,Inhibition at 10µM (%),[4]; average,18.1%
same,Inhibition at 10µM (%),[4]; experiment 1,45.9%
same,Inhibition at 10µM (%),[4]; experiment 2,-9.6%
same,Inhibition at 10µM (%),[5]; average,90.8%
same,IC50,[5]; average (± SEM where n=3),200 ± 20 nM
same,Inhibition at 10µM (%),[5]; experiment 1,89.8%
same,IC50,[5]; experiment 1,194 nM
same,Inhibition at 10µM (%),[5]; experiment 2,91.8%
same,IC50,[5]; experiment 2,170 nM
same,IC50,[5]; experiment 3,242 nM
same,Inhibition at 10µM (%),"[6]; CDK15/Y, average",95.3%
same,IC50,"[6]; CDK15/Y, average (± SEM where n=3), read-out: IC50",220 ± 20 nM
same,Inhibition at 10µM (%),"[6]; CDK15/Y, experiment 1",95.2%
same,IC50,"[6]; CDK15/Y, experiment 1, read-out: IC50",220 nM
same,Inhibition at 10µM (%),"[6]; CDK15/Y, experiment 2",95.3%
same,IC50,"[6]; CDK15/Y, experiment 2, read-out: IC50",260 nM
same,IC50,"[6]; CDK15/Y, experiment 3, read-out: IC50",193 nM
same,IC50,"[6]; live HEK-293, 2 h, mean ± S.E.M. (n=3) or mean (n=2), read-out: IC50 for CDK/cyclin complexes, CDK15/Y",220 ± 20 nM
same,Inhibition at 10µM (%),[7]; average,56.5%
same,Inhibition at 10µM (%),[7]; experiment 1,51.7%
same,Inhibition at 10µM (%),[7]; experiment 2,61.3%
same,Inhibition at 10µM (%),[8]; average,29.7%
same,Inhibition at 10µM (%),[8]; experiment 1,25.4%
same,Inhibition at 10µM (%),[8]; experiment 2,34.0%
same,Inhibition at 10µM (%),[9]; average,97.4%
same,IC50,"[9]; average (± SEM where n=3), read-out: IC50",230 ± 30 nM
same,Inhibition at 10µM (%),[9]; experiment 1,93.4%
